In US20100209537A1, “Metal complexes with anticancer activity” (priority 2009, published 2010):

What was measured:
[1] = tested on: ovarian cancer cell line A2780; assay: MTT assay, ovarian cancer cell line A2780; format: cell-based, human; details: n = 3, A2780
Description: MTT [3-(4,5-dimethylthiazol-2yl)-2,5-diphenyltetrazolium bromide] method:
MTT is used to measure the metabolic activity of viable cells. The assay is non-radioactive and can be performed entirely in a micro titer plate (MTP). It is suitable for measuring cell proliferation, cell viability or cytotoxicity. The reaction produces water-insoluble formazan salt that must be solubilized. Procedure involves culturing the cells in a 96-well micro titer plate, and then incubating them with MTT solution for approximately 2 hours. During incubation period, viable cells convert MTT to a water-insoluble formazan dye. The formazan dye in the MTP is solubilized and quantified with an ELISA plate reader. The absorbance directly correlates with the cell number. This can be applicable for adherent cells cultured in MTP.
Compounds were tested at concentrations of 3 and 30 μg/ml by MTT assay using the ovarian cancer cell line A2780.

[2] = Stability at room temperature; format: physicochemical
[3] = Solubility in water and organic solvents; format: physicochemical

Structure (SMILES) | Percent surviving cells of DMSO control (Mean) ([1]; 3 μg/ml) [%] | Percent surviving cells of DMSO control (Mean) ([1]; 30 μg/ml) [%] | stability at room temperature [2] | solubility in dimethylformamide and dimethylsulphoxide [3] | solubility in methanol and acetone [3] | solubility in water [3]
Oc1ccccc1C=NNc1nc2ccccc2nc1Cl [RM2, 2-hydroxybenzaldehyde-1-(3-chloro-2-quinoxalinyl) hydrazone] | 0.4 | 0.4 | stable | fairly soluble | very slightly soluble | insoluble
COc1cccc(C=NNc2nc3ccccc3nc2Cl)c1O [RM5, 2-Hydroxy-3-methoxybenzaldehyde-1-(3-chloro-2-quinoxalinyl)-hydrazone] | 0.6 | 0.2 | stable | fairly soluble | very slightly soluble | insoluble
Oc1ccc2ccccc2c1C=NNc1nc2ccccc2nc1Cl [RM7, 2-hydroxy-1-naphthaldehyde-1-(3-chloro-2-quinoxalinyl)hydrazone] | 6.6 | 0.9 | stable | fairly soluble | very slightly soluble | insoluble
Oc1ccc2ccccc2c1C=NNc1nc2ccccc2nc1Cl [RM8, 2-hydroxy-1-naphthaldehyde-1-(3-chloro-2-quinoxalinyl)hydrazone] | 0.3 | 0.1 | stable | fairly soluble | very slightly soluble | insoluble
Clc1nc2ccccc2nc1NN=Cc1ccccn1 [RM10, 2-pyridinecarbaldehyde-2-(3-chloro-2-quinoxalinyl)hydrazone] | 4.6 | 1 | stable | fairly soluble | very slightly soluble | insoluble
Clc1nc2ccccc2nc1NN=Cc1ccccn1 [RM11, 2-pyridinecarbaldehyde-2-(3-chloro-2-quinoxalinyl)hydrazone] | 0.4 | 0.7 | stable | fairly soluble | very slightly soluble | insoluble
Clc1nc2ccccc2nc1NN=Cc1ccco1 [RM14, 2-furaldehyde-2-(3-chloro-2-quinoxalinyl)hydrazone] | 13.2 | 0.7 | stable | fairly soluble | very slightly soluble | insoluble
